pEC50: −log10 of the molar value.
Columns and labels:
[1] = target: T1, human Cystic Fibrosis Transmembrane Conductance Regulator (CFTR) harboring the ΔF508 mutation (Homo sapiens, UniProt P13569, DEL508-508); assay: H441 cell ΔF508-CFTR-HRP cell surface assay (Emax and EC50); format: cell-based; conditions: for Emax: NCI-H441, NA = Not active
T1 construct: expressed in transfected cells; host or cells: H441 carcinoma line (G418-selected)
How it was run: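 H441 and 41o- bronchial epithelial cells expressing ΔF508-CFTR with an extracellular-loop-4 HRP tag were treated with a 15-point compound series (24.5–0.001 μM) for two nights, H441 at 27° C, 41o- at 37° C with 0.0005 mg/ml doxycycline. Surface HRP luminescence read; % of maximum VX809 signal and EC50 derived.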

[2] = target: T2, CFTR-mediated transepithelial chloride transport in primary human bronchial epithelial cells from a ΔF508 homozygous CF donor (Homo sapiens, UniProt P13569, DEL508-508); assay: TECC24 recording of CFTR-mediated transepithelial chloride transport in CF-HBE cells (AUC fold over DMSO); format: cell-based; conditions: test agent 10 μM, 48 hours incubation, AUC of forskolin-stimulated IEQ relative to DMSO
T2 construct: Primary human bronchial epithelial cells from a ΔF508 homozygous CF donor; host or cells: primary CF-HBE cells, ΔF508 homozygous donor
T2 sequence (P13569 with tags, fused parts or gaps DEL508-508): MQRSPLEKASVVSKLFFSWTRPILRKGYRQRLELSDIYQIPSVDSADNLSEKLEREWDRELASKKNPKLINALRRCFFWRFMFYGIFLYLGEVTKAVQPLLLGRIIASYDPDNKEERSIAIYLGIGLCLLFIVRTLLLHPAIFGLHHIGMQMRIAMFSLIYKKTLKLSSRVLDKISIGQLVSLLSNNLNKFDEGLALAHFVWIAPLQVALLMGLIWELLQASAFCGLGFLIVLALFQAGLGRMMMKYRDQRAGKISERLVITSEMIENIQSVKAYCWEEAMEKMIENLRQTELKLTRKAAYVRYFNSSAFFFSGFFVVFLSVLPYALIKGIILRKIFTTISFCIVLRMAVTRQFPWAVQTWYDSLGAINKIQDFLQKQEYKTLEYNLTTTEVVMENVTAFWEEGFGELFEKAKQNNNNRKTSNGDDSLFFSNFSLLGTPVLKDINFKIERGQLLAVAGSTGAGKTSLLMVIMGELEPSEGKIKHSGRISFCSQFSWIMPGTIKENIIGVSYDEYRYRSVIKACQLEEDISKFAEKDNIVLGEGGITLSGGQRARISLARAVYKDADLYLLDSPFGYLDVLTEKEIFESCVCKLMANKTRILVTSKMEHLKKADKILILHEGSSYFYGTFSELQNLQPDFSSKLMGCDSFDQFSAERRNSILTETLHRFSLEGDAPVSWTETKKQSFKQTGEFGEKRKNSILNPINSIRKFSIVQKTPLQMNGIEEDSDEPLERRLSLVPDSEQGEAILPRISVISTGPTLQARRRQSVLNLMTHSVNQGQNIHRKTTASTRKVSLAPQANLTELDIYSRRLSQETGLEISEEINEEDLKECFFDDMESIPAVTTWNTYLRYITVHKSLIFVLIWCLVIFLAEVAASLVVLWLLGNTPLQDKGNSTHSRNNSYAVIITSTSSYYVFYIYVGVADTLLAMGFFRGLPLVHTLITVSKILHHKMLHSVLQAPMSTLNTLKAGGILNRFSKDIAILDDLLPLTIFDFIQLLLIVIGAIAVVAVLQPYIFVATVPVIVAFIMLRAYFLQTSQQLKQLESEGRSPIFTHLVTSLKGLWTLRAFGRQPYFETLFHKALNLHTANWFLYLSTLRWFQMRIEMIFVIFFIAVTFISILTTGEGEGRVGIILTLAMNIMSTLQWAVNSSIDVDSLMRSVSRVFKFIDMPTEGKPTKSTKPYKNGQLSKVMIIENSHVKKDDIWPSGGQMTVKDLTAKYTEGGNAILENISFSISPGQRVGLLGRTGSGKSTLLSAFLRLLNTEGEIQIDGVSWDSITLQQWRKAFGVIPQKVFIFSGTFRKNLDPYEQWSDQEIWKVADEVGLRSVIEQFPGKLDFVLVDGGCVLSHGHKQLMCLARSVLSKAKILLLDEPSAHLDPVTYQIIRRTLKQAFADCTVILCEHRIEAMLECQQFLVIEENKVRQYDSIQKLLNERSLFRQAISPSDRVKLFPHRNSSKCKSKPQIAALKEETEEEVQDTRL
How it was run: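 Primary ΔF508/ΔF508 CF-HBE cells on inserts exposed to test agent in IL-13-containing medium for 48 h at 36.5 °C. Current-clamp VT/TEER recording in pH 7.4 HEPES saline with benzamil 10 μM, forskolin 10 μM, then CFTRinh-172 20 μM. AUC of equivalent Cl⁻ current between forskolin and inhibitor, expressed as ratio over vehicle.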

T1 sequence (P13569 with tags, fused parts or gaps DEL508-508): as above

Compound | pEC50 [1] | Emax [1] [%] | TECC24 AUC fold over DMSO @10 μM [2]
O=C(N[C@@H](Cc1c(Cl)cccc1Cl)C(=O)O)c1ccc2ccccc2c1OCc1ccc(C(F)(F)F)cc1 [Example 152, (S)-3-(2,6-dichlorophenyl)-2-(1-((4-(trifluoromethyl)benzyl)oxy)-2-naphthamido)propanoic Acid] | 5.14 | 122 | C (“C” refers to AUC @10 uM <4)
CCC1([C@H](NC(=O)c2ccc3ccc(Cl)cc3c2OCc2ccc(C(F)(F)F)cc2)C(=O)O)CCCC1 [Example 258] |  | 264 | A (“A” refers to AUC @10 uM >6)
CC(C)(C)C[C@H](NC(=O)c1ccc2ccccc2c1OCc1ccc(S(F)(F)(F)(F)F)cc1)C(=O)O [Example 110, (S)-4,4-dimethyl-2-(1-((4-(pentafluoro-16-sulfanyl)benzyl)oxy)-2-naphthamido)pentanoic Acid] | 5.68 | 83.1 | B (“B” refers to AUC @10 uM between 4-6)
CC1(C(NC(=O)c2ccc3ccccc3c2OCc2ccc(C(F)(F)F)cc2)C(=O)O)CC1 (centres unmarked) [Example 56, 2-(1-methylcyclopropyl)-2-(1-((4-(trifluoromethyl)benzyl)oxy)-2-naphthamido)acetic Acid] | 5.77 | 127 | C (“C” refers to AUC @10 uM <4)
C#CC(C)(C)C(NC(=O)c1ccc2ccccc2c1OCc1ccc(OC(F)(F)F)cc1)C(=O)O (centres unmarked) [Example 234, 3,3-dimethyl-2-[[1-[[4-(trifluoromethoxy)phenyl]methoxy]naphthalene-2-carbonyl]amino]pent-4-ynoic Acid] | 5.89 | 140 | A (“A” refers to AUC @10 uM >6)
CC(C)(SC1CCCC1)[C@H](NC(=O)c1ccc2ccccc2c1OCC1CCCCC1)C(=O)O [Example 170, (R)-2-(1-(cyclohexylmethoxy)-2-naphthamido)-3-(cyclopentylthio)-3-methylbutanoic Acid] | 5.30 | 143 | C (“C” refers to AUC @10 uM <4)
CC(C)(C)C[C@H](NC(=O)c1ccc2ccccc2c1OC[C@H]1CC[C@H](C(F)(F)F)CC1)C(=O)O [Example 179, (S)-4,4-dimethyl-2-(1-(((1r,4S)-4-(trifluoromethyl)cyclohexyl)methoxy)-2-naphthamido)pentanoic Acid] | 5.47 | 103 | C (“C” refers to AUC @10 uM <4)
CC(C)(C)[C@H](NC(=O)c1ccc2cc(F)ccc2c1OCc1ccc(S(F)(F)(F)(F)F)cc1)C(=O)O [Example 81, (S)-2-(6-fluoro-1-((4-(pentafluoro-16-sulfanyl)benzyl)oxy)-2-naphthamido)-3,3-dimethylbutanoic Acid] | 6.15 | 91.9 | A (“A” refers to AUC @10 uM >6)
CC(C)(C)[C@H](NC(=O)c1ccc2ccccc2c1OCc1ccc([N+](=O)[O-])cc1)C(=O)O [Example 231, (2S)-3,3-dimethyl-2-[[1-[(4-nitrophenyl)methoxy]naphthalene-2-carbonyl]amino]butanoic Acid] | 5.11 | 70.1 | C (“C” refers to AUC @10 uM <4)
CC(C)(C)[C@H](NC(=O)c1ccc2cc(F)ccc2c1OCc1nc2ccccc2s1)C(=O)O [Example 61, (S)-2-(1-(benzo[d]thiazol-2-ylmethoxy)-6-fluoro-2-naphthamido)-3,3-dimethylbutanoic Acid] | 5.57 | 132 | C (“C” refers to AUC @10 uM <4)

More lines, in order of rising pEC50 [1], values ahead:

pEC50 [1] | Emax [1] [%] | TECC24 AUC fold over DMSO @10 μM [2] | Compound
6.15 | 63.9 | C (“C” refers to AUC @10 uM <4) | O=C(N[C@H](C(=O)O)C12CC(C(F)(F)F)(C1)C2)c1ccc2ccccc2c1OCc1ccc(SC(F)(F)F)cc1 [Example 17, (S)-2-(3-(trifluoromethyl)bicyclo[1.1.1]pentan-1-yl)-2-(1-((4-((trifluoromethyl)thio)benzyl)oxy)-2-naphthamido)acetic Acid]
6.30 | 137 | A (“A” refers to AUC @10 uM >6) | CC1([C@H](NC(=O)c2ccc3ccc(C(F)(F)F)cc3c2OCc2ccc(OC(F)(F)F)cc2)C(=O)O)CC1 [Example 297, (S)-2-(1-methylcyclopropyl)-2-(1-((4-(trifluoromethoxy)benzyl)oxy)-7-(trifluoromethyl)-2-naphthamido)acetic Acid]
6.40 | 138 | B (“B” refers to AUC @10 uM between 4-6) | CC(C)(SC1CCCC1)[C@H](NC(=O)c1ccc2ccccc2c1OCc1ccc(SC(F)(F)F)cc1)C(=O)O [Example 169, (R)-3-(cyclopentylthio)-3-methyl-2-(1-((4-((trifluoromethyl)thio)benzyl)oxy)-2-naphthamido)butanoic Acid]
6.40 | 191 | A (“A” refers to AUC @10 uM >6) | C#CC(C)(C)C(NC(=O)c1ccc2ccc(C)cc2c1OCc1ccc(C(F)(F)F)cc1)C(=O)O (centres unmarked) [Example 219, 3,3-dimethyl-2-[[7-methyl-1-[[4-(trifluoromethyl)phenyl]methoxy]naphthalene-2-carbonyl]amino]pent-4-ynoic Acid]
6.52 | 349 | A (“A” refers to AUC @10 uM >6) | CCC(C)(C)[C@H](NC(=O)c1ccc2ccc(OC)cc2c1OCc1ccc(C(F)(F)F)cc1)C(=O)O [Example 309, (S)-2-(7-methoxy-1-((4-(trifluoromethyl)benzyl)oxy)-2-naphthamido)-3,3-dimethylpentanoic Acid]
6.70 | 313 | A (“A” refers to AUC @10 uM >6) | CCC(C)(C)[C@H](NC(=O)c1ccc2ccc(Cl)cc2c1OCc1ccc(C(F)(F)F)cc1)C(=O)O [Example 283, (S)-2-(7-chloro-1-((4-(trifluoromethyl)benzyl)oxy)-2-naphthamido)-3,3-dimethylpentanoic Acid]
6.70 | 196 | C (“C” refers to AUC @10 uM <4) | O=C(N[C@H](C(=O)O)C(c1ccccc1)c1ccccc1)c1ccc2ccccc2c1OCc1ccc(C(F)(F)F)c(F)c1 [Example 130, (S)-2-(1-((3-fluoro-4-(trifluoromethyl)benzyl)oxy)-2-naphthamido)-3,3-diphenylpropanoic Acid]
6.70 | 305 | A (“A” refers to AUC @10 uM >6) | Cc1ccc2ccc(C(=O)N[C@H](C(=O)O)C(C)(C)C)c(OCc3ccc(OC(F)(F)F)cc3)c2c1 [Example 249, (2S)-3,3-dimethyl-2-[[7-methyl-1-[[4-(trifluoromethoxy)phenyl]methoxy]naphthalene-2-carbonyl]amino]butanoic Acid]
7.00 | 296 | A (“A” refers to AUC @10 uM >6) | CC(C)(C)[C@H](NC(=O)c1ccc2ccc(Br)cc2c1OCc1ccc(C(F)(F)F)cc1)C(=O)O [Example 256, (2S)-2-[[7-bromo-1-[[4-(trifluoromethyl)phenyl]methoxy]naphthalene-2-carbonyl]amino]-3,3-dimethyl-butanoic Acid]
7.00 | 186 | A (“A” refers to AUC @10 uM >6) | CCC(C)(C)[C@H](NC(=O)c1ccc2ccc(Cl)cc2c1OCc1ccc(OC(F)(F)F)cc1)C(=O)O [Example 277, (S)-2-(7-chloro-1-((4-(trifluoromethoxy)benzyl)oxy)-2-naphthamido)-3,3-dimethylpentanoic Acid]
7.00 | 236 | A (“A” refers to AUC @10 uM >6) | CC(C)(C)[C@H](NC(=O)c1ccc2ccc(F)cc2c1OCc1ccc(C(F)(F)F)cc1)C(=O)O [Example 241, (S)-2-(7-fluoro-1-((4-(trifluoromethyl)benzyl)oxy)-2-naphthamido)-3,3-dimethylbutanoic Acid]
7.00 | 442 | A (“A” refers to AUC @10 uM >6) | CCCC(C)(C)[C@H](NC(=O)c1ccc2ccc(C(F)F)cc2c1OCc1ccc(C(F)(F)F)cc1)C(=O)O [Example 246, (2S)-2-[[7-(difluoromethyl)-1-[[4-(trifluoromethyl)phenyl]methoxy]naphthalene-2-carbonyl]amino]-3,3-dimethylhexanoic Acid]
7.00 | 324 | A (“A” refers to AUC @10 uM >6) | CCCC(C)(CC)[C@H](NC(=O)c1ccc2ccc(Cl)cc2c1OCc1ccc(C(F)(F)F)cc1)C(=O)O (stereo partly drawn) [Example 255, (2S)-2-[[7-chloro-1-[[4-(trifluoromethyl)phenyl]methoxy]naphthalene-2-carbonyl]amino]-3-ethyl-3-methyl-hexanoic Acid]
7.00 | 224 | A (“A” refers to AUC @10 uM >6) | CC(C)(C)[C@H](NC(=O)c1ccc2ccc(Br)cc2c1OCc1ccc(OC(F)(F)F)cc1)C(=O)O [Example 247, (2S)-2-[[7-bromo-1-[[4-(trifluoromethoxy)phenyl]methoxy]naphthalene-2-carbonyl]amino]-3,3-dimethyl-butanoic Acid]
